Data published in US10894797B2, “Fused tricyclic ring derivatives as SRC homology-2 phosphatase inhibitors” (Nikang Therapuetics, Inc., priority 2018, dated 2021).

Target: SHP2 (Homo sapiens (Human), UniProt Q06124)
Assay: SHP2 allosteric inhibition assay (DiFMUP substrate, bisphos-IRS1 peptide activation)
Assay type: biochemical
Details: 0.33 nM SHP2, 0.5 μM bisphos-IRS1 peptide, 100 uM DiFMUP, room temperature
Protocol: At the basal state, SHP2 is auto-inhibited and access of substrates to the catalytic site is blocked by the […] interactions between the SH2 domains and the PTP domain. When bis-tyrosyl-phosphorylated peptides bind to SH2 domain of SHP2, the PTP domain becomes available for substrate recognition and reaction catalysis and SHP2 is allosterically activated. SHP2 catalytic activity can be measured using a fluorogenic artificial substrate DiFMUP.
The phosphatase reactions were carried out at room temperature in 384-well black polystyrene plates (Greiner Bio-One, Cat #784076) using assay buffers containing 60 mM HEPES, pH 7.2, 75 mM NaCl, 75 mM KCl, 1 mM EDTA, 0.05% P-20, and 5 mM DTT.
0.33 nM of SHP2 was co-incubated with of 0.5 μM of bisphos-IRS 1 peptide (sequence: H2N-LN(pY)IDLDLV(dPEG8)LST(pY)ASINFQK-amide) and various concentrations of compounds for 30-60 min at room temperature. Then the reaction was initiated by addition of the surrogate substrate DiFMUP (Invitrogen, Cat #D6567, 100 uM final).
The real-time conversion of DiFMUP to DiFMU (6,8-difluoro-7-hydroxyl-4-methyl-coumarin) was measured every 5 min for 30 min using a microplate reader (CLARIOstar, BMG Labtech) with excitation and emission wavelengths of 340 nm and 450 nm, respectively. Initial reaction rates were determined by linear fitting of the data and the inhibitor dose response curves were analyzed using normalized IC50 regression curve fitting with control-based normalization.

Chain of SHP2 (Q06124 whole entry): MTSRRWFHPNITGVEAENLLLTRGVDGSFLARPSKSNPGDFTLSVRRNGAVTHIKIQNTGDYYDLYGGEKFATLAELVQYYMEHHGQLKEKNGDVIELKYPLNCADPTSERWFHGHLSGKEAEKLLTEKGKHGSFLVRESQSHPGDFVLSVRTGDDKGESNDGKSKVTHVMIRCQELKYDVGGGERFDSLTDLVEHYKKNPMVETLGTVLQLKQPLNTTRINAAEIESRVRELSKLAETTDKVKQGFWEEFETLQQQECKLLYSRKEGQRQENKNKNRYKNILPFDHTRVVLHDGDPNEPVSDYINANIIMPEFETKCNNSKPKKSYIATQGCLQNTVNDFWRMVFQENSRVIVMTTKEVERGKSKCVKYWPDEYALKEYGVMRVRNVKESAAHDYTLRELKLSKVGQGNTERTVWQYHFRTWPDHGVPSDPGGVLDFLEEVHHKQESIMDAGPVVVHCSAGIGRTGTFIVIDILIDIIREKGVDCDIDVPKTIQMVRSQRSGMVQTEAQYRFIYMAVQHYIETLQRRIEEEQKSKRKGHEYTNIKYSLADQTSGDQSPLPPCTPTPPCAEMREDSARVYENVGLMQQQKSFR

| Compound | IC50 [nM] | Shp2 IC50(nM) |
| --- | --- | --- |
| C[C@@H]1OCC2(CCN(c3ncc(Sc4ccnc5c4OC[C@@H]4C[C@H](OC(N)=O)CN54)nc3CO)CC2)[C@@H]1N [Compound 22, (6aS,8S)-4-((5-((3S,4S)-4-amino-3-methyl-2-oxa-8-azaspiro[4.5]decan-8-yl)-6-(hydroxymethyl)pyrazin-2-yl)thio)-6a,7,8,9-tetrahydro-6H-pyrido[3,2-b]pyrrolo[1,2-d]-[1,4]oxazin-8-yl carbamate] | 6 | – |
| C[C@@H]1OCC2(CCN(c3ncc(Sc4ccnc5c4OC[C@@H]4C[C@@H](OC(N)=O)CN54)nc3CO)CC2)[C@@H]1N [Compound 23, (6aS,8R)-4-((5-((3 S,4S)-4-amino-3-methyl-2-oxa-8-azaspiro[4.5]decan-8-yl)-6-(hydroxymethyl)pyrazin-2-yl)thio)-6a,7,8,9-tetrahydro-6H-pyrido[3,2-b]pyrrolo[1,2-d][1,4]oxazin-8-yl Carbamate] | 8 | – |
| C[C@@H]1OCC2(CCN(c3ncc(Sc4ccnc5c4OC[C@@H]4C[C@H](n6cccn6)CN54)nc3CO)CC2)[C@@H]1N [Compound 24, (6-(((6aS,8S)-8-(1H-pyrazol-1-yl)-6a,7,8,9-tetrahydro-6H-pyrido[3,2-b]-pyrrolo[1,2-d][1,4]oxazin-4-yl)thio)-3-((3 S,4S)-4-amino-3-methyl-2-oxa-8-azaspiro[4.5]decan-8-yl)pyrazin-2-yl)methanol] | 10 | – |
| C[C@@H]1OCC2(CCN(c3ncc(Sc4ccnc5c4OC[C@@H]4C[C@@H](n6cccn6)CN54)nc3CO)CC2)[C@@H]1N [Compound 25, (6-(((6aS,8R)-8-(1H-pyrazol-1-yl)-6a,7,8,9-tetrahydro-6H-pyrido[3,2-b]-pyrrolo[1,2-d][1,4]oxazin-4-yl)thio)-3-((3 S,4S)-4-amino-3-methyl-2-oxa-8-azaspiro[4.5]decan-8-yl)pyrazin-2-yl)methanol] | 11 | – |
| C[C@@H]1OCC2(CCN(c3ncc(Sc4ccnc5c4OC[C@H]4COCCN54)nc3CO)CC2)[C@@H]1N [Compound 26, (3-((3S,4S)-4-amino-3-methyl-2-oxa-8-azaspiro[4.5]decan-8-yl)-6-(((R)-6a,7,9,10-tetrahydro-6H-[1,4]oxazino[4,3-d]pyrido[3,2-b][1,4]oxazin-4-yl)thio)pyrazin-2-yl)methanol] | – | one of 26 and 27 is 10 and the other is 8 |
| C[C@@H]1OCC2(CCN(c3ncc(Sc4ccnc5c4OC[C@@H]4COCCN54)nc3CO)CC2)[C@@H]1N [Compound 27, (3-((3S,4S)-4-amino-3-methyl-2-oxa-8-azaspiro[4.5]decan-8-yl)-6-(((S)-6a,7,9,10-tetrahydro-6H-[1,4]oxazino[4,3-d]pyrido[3,2-b][1,4]oxazin-4-yl)thio)pyrazin-2-yl)methanol] | – | one of 26 and 27 is 10 and the other is 8 |
| C[C@@H]1OCC2(CCN(c3ncc(Sc4ccnc5c4OCC4CS(=O)(=O)CCN54)nc3CO)CC2)[C@@H]1N (stereo partly drawn) [Compound 28, 4-((5-((3S,4S)-4-amino-3-methyl-2-oxa-8-azaspiro[4.5]decan-8-yl)-6-(hydroxymethyl)pyrazin-2-yl)thio)-6a,7,9,10-tetrahydro-6H-pyrido[3,2-b][1,4]thiazino[4,3-d][1,4]oxazine 8,8-dioxide] | 13 | – |
| COC[C@H]1C[C@H]2COc3c(Sc4cnc(N5CCC6(CC5)CO[C@@H](C)[C@H]6N)c(CO)n4)ccnc3N2C1 [Compound 29, (3-((3S,4S)-4-amino-3-methyl-2-oxa-8-azaspiro[4.5]decan-8-yl)-6-(((6aS,8S)-8-(methoxymethyl)-6a,7,8,9-tetrahydro-6H-pyrido[3,2-b]pyrrolo[1,2-d][1,4]oxazin-4-yl)thio)pyrazin-2-yl)methanol] | 3.6 | – |
| COC[C@@H]1C[C@H]2COc3c(Sc4cnc(N5CCC6(CC5)CO[C@@H](C)[C@H]6N)c(CO)n4)ccnc3N2C1 [Compound 30, (3-((3S,4S)-4-amino-3-methyl-2-oxa-8-azaspiro[4.5]decan-8-yl)-6-(((6aS,8R)-8-(methoxymethyl)-6a,7,8,9-tetrahydro-6H-pyrido[3,2-b]pyrrolo[1,2-d][1,4]oxazin-4-yl)thio)pyrazin-2-yl)methanol] | 3.8 | – |
| COCOC[C@H]1C[C@H]2COc3c(Sc4cnc(N5CCC6(CC5)CO[C@@H](C)[C@H]6N)c(CO)n4)ccnc3N2C1 [Compound 31, (3-((3S,4S)-4-amino-3-methyl-2-oxa-8-azaspiro[4.5]decan-8-yl)-6-(((6aS,8S)-8-((methoxymethoxy)methyl)-6a,7,8,9-tetrahydro-6H-pyrido[3,2-b]pyrrolo[1,2-d][1,4]oxazin-4-yl)thio)pyrazin-2-yl)methanol] | 4.2 | – |
| COCCOC[C@H]1C[C@H]2COc3c(Sc4cnc(N5CCC6(CC5)CO[C@@H](C)[C@H]6N)c(CO)n4)ccnc3N2C1 [Compound 32, (3-((3S,4S)-4-amino-3-methyl-2-oxa-8-azaspiro[4.5]decan-8-yl)-6-(((6aS,8S)-8-((2-methoxyethoxy)methyl)-6a,7,8,9-tetrahydro-6H-pyrido[3,2-b]pyrrolo[1,2-d][1,4]oxazin-4-yl)thio)pyrazin-2-yl)methanol] | 4 | – |
| C[C@@H]1OCC2(CCN(c3ncc(Sc4ccnc5c4OC[C@@H]4C[C@H](COCC6CC6)CN54)nc3CO)CC2)[C@@H]1N [Compound 33, (3-((3S,4S)-4-amino-3-methyl-2-oxa-8-azaspiro[4.5]decan-8-yl)-6-(((6aS,8S)-8-((cyclopropylmethoxy)methyl)-6a,7,8,9-tetrahydro-6H-pyrido[3,2-b]pyrrolo[1,2-d][1,4]oxazin-4-yl)thio)pyrazin-2-yl)methanol] | 2.3 | – |
| C[C@@H]1OCC2(CCN(c3ncc(Sc4ccnc5c4OC[C@@H]4C[C@H](COCC6COC6)CN54)nc3CO)CC2)[C@@H]1N [Compound 34, (3-((3S,4S)-4-amino-3-methyl-2-oxa-8-azaspiro[4.5]decan-8-yl)-6-(((6aS,8S)-8-((oxetan-3-ylmethoxy)methyl)-6a,7,8,9-tetrahydro-6H-pyrido[3,2-b]pyrrolo[1,2-d][1,4]oxazin-4-yl)thio)pyrazin-2-yl)methanol] | 6.2 | – |
| C[C@@H]1OCC2(CCN(c3ncc(Sc4cc(N)nc5c4OC[C@@H]4CCCN54)nc3CO)CC2)[C@@H]1N [Compound 35, formic acid; (3-((3S,4S)-4-amino-3-methyl-2-oxa-8-azaspiro[4.5]decan-8-yl)-6-(((S)-2-amino-6a,7,8,9-tetrahydro-6H-pyrido[3,2-b]pyrrolo[1,2-d][1,4]oxazin-4-yl)thio)pyrazin-2-yl)methanol] | 18 | – |
| COC[C@H]1C[C@H]2COc3c(Sc4cnc(N5CCC6(CC5)Cc5ncccc5[C@H]6N)c(CO)n4)ccnc3N2C1 [Compound 36, (3-((S)-5-amino-5,7-dihydrospiro[cyclopenta[b]pyridine-6,4′-piperidin]-1′-yl)-6-(((6aS,8S)-8-(methoxymethyl)-6a,7,8,9-tetrahydro-6H-pyrido[3,2-b]pyrrolo[1,2-d][1,4]oxazin-4-yl)thio)pyrazin-2-yl)methanol] | – | One of 36 and 37 is 2.7 and the other is 4.2 |
| COC[C@@H]1C[C@H]2COc3c(Sc4cnc(N5CCC6(CC5)Cc5ncccc5[C@H]6N)c(CO)n4)ccnc3N2C1 [Compound 37, (3-((S)-5-amino-5,7-dihydrospiro[cyclopenta[b]pyridine-6,4′-piperidin]-1′-yl)-6-(((6aS,8R)-8-(methoxymethyl)-6a,7,8,9-tetrahydro-6H-pyrido[3,2-b]pyrrolo[1,2-d][1,4]oxazin-4-yl)thio)pyrazin-2-yl)methanol] | – | One of 36 and 37 is 2.7 and the other is 4.2 |
| COC[C@H]1C[C@H]2COc3c(Sc4cnc(N5CCC6(CC5)COC5(CCC5)[C@H]6N)c(CO)n4)ccnc3N2C1 [Compound 38, (3-((S)-5-amino-13-oxa-9-azadispiro[3.1.5^6.2^4]tridecan-9-yl)-6-(((6aS,8S)-8-(methoxymethyl)-6a,7,8,9-tetrahydro-6H-pyrido[3,2-b]pyrrolo[1,2-d][1,4]oxazin-4-yl)thio)pyrazin-2-yl)methanol] | 5.7 | – |
| COCOC[C@H]1C[C@H]2COc3c(Sc4cnc(N5CCC6(CC5)COC5(CCC5)[C@H]6N)c(CO)n4)ccnc3N2C1 [Compound 39, (3-((S)-5-amino-13-oxa-9-azadispiro[3.1.5^6.2^4]tridecan-9-yl)-6-(((6aS,8S)-8-((methoxymethoxy)methyl)-6a,7,8,9-tetrahydro-6H-pyrido[3,2-b]pyrrolo[1,2-d][1,4]oxazin-4-yl)thio)pyrazin-2-yl)methanol] | 7 | – |
| COCOCOC[C@H]1C[C@H]2COc3c(Sc4cnc(N5CCC6(CC5)CO[C@@H](C)[C@H]6N)c(CO)n4)ccnc3N2C1 [Compound 40, (3-((3 S,4S)-4-Amino-3-methyl-2-oxa-8-azaspiro[4.5]decan-8-yl)-6-(((6aS,8S)-8-(((methoxymethoxy)methoxy)methyl)-6a,7,8,9-tetrahydro-6H-pyrido[3,2-b]pyrrolo[1,2-d][1,4]oxazin-4-yl)thio)pyrazin-2-yl)methanol] | 5.9 | – |
| C[C@@H]1OCC2(CCN(c3ncc(Sc4ccnc5c4OC[C@@H]4C[C@H](CO)CN54)nc3CO)CC2)[C@@H]1N [Compound 41, (3-((3S,4S)-4-amino-3-methyl-2-oxa-8-azaspiro[4.5]decan-8-yl)-6-(((6aS,8S)-8-(hydroxymethyl)-6a,7,8,9-tetrahydro-6H-pyrido[3,2-b]pyrrolo[1,2-d][1,4]oxazin-4-yl)thio)pyrazin-2-yl)methanol] | 5 | – |
